Measured values as given in ChEMBL document CHEMBL2086297, “Reduced pulmonary surfactant interaction of daptomycin analogs via tryptophan replacement with alternative amino acids” (2012).
In brackets after ≈: the same amount, converted by molar mass. Each block holds one molecule with its values, some of them ahead of it.

Key:
Type in all cases: functional
Staphylococcus aureus [1] = experiment: Antibacterial activity against methicillin-susceptible Staphylococcus aureus ATCC 29213 grown on calcium supplemented Mueller-Hinton broth by broth microdilution method
Staphylococcus aureus [2] = experiment: Antibacterial activity against methicillin-susceptible Staphylococcus aureus ATCC 29213 by broth microdilution method in presence of 1% pulmonary surfactant; details: ATCC 29213, Pulmonary surfactant
Staphylococcus aureus [3] = experiment: Antibacterial activity against methicillin-susceptible Staphylococcus aureus ATCC 29213 by broth microdilution method in presence of 5% pulmonary surfactant; details: ATCC 29213, Pulmonary surfactant
Staphylococcus aureus [4] = experiment: Antibacterial activity against methicillin-susceptible Staphylococcus aureus ATCC 29213 by broth microdilution method in presence of 4% human serum albumin

SMILES: CCCCCCCCCC(=O)N[C@@H](Cc1ccc(OC)cc1)C(=O)N[C@@H](CC(N)=O)C(=O)N[C@@H](CC(=O)O)C(=O)N[C@@H]1C(=O)NCC(=O)N[C@@H](CCCN)C(=O)N[C@@H](CC(=O)O)C(=O)N[C@H](C)C(=O)N[C@@H](CC(=O)O)C(=O)NCC(=O)N[C@H](CO)C(=O)N[C@@H]([C@@H](C)CC(=O)O)C(=O)N[C@@H](CC(=O)c2ccccc2N)C(=O)O[C@@H]1C
- MIC (Staphylococcus aureus [1]): 2 mg/L (≈ 1.24 µM)
- MIC (Staphylococcus aureus [2]): 2 mg/L
- MIC (Staphylococcus aureus [3]): 2 mg/L
- MIC (Staphylococcus aureus [4]): 8 mg/L

SMILES: CCCCCCCCCC(=O)N[C@@H](COc1ccccc1)C(=O)N[C@@H](CC(N)=O)C(=O)N[C@@H](CC(=O)O)C(=O)N[C@@H]1C(=O)NCC(=O)N[C@@H](CCCN)C(=O)N[C@@H](CC(=O)O)C(=O)N[C@H](C)C(=O)N[C@@H](CC(=O)O)C(=O)NCC(=O)N[C@H](CO)C(=O)N[C@@H]([C@@H](C)CC(=O)O)C(=O)N[C@@H](CC(=O)c2ccccc2N)C(=O)O[C@@H]1C
- MIC (Staphylococcus aureus [1]): 4 mg/L (≈ 2.5 µM)
- MIC (Staphylococcus aureus [2]): 32 mg/L
- MIC (Staphylococcus aureus [3]): > 32 mg/L
- MIC (Staphylococcus aureus [4]): 32 mg/L

SMILES: CCCCCCCCCC(=O)N[C@@H](Cc1ccc(O)cc1)C(=O)N[C@@H](CC(N)=O)C(=O)N[C@@H](CC(=O)O)C(=O)N[C@@H]1C(=O)NCC(=O)N[C@@H](CCCN)C(=O)N[C@@H](CC(=O)O)C(=O)N[C@H](C)C(=O)N[C@@H](CC(=O)O)C(=O)NCC(=O)N[C@H](CO)C(=O)N[C@@H]([C@@H](C)CC(=O)O)C(=O)N[C@@H](CC(=O)c2ccccc2N)C(=O)O[C@@H]1C
- MIC (Staphylococcus aureus [1]): > 32 mg/L
- MIC (Staphylococcus aureus [2]): > 32 mg/L
- MIC (Staphylococcus aureus [3]): > 32 mg/L
- MIC (Staphylococcus aureus [4]): > 32 mg/L

SMILES: CCCCCCCCCC(=O)N[C@@H](Cc1ccccc1OC)C(=O)N[C@@H](CC(N)=O)C(=O)N[C@@H](CC(=O)O)C(=O)N[C@@H]1C(=O)NCC(=O)N[C@@H](CCCN)C(=O)N[C@@H](CC(=O)O)C(=O)N[C@H](C)C(=O)N[C@@H](CC(=O)O)C(=O)NCC(=O)N[C@H](CO)C(=O)N[C@@H]([C@@H](C)CC(=O)O)C(=O)N[C@@H](CC(=O)c2ccccc2N)C(=O)O[C@@H]1C
- MIC (Staphylococcus aureus [1]): 2 mg/L (≈ 1.24 µM)
- MIC (Staphylococcus aureus [2]): 2 mg/L
- MIC (Staphylococcus aureus [3]): 4 mg/L
- MIC (Staphylococcus aureus [4]): 8 mg/L

SMILES: CCCCCCCCCC(=O)N[C@@H](Cc1ccc(OC)c(OC)c1)C(=O)N[C@@H](CC(N)=O)C(=O)N[C@@H](CC(=O)O)C(=O)N[C@@H]1C(=O)NCC(=O)N[C@@H](CCCN)C(=O)N[C@@H](CC(=O)O)C(=O)N[C@H](C)C(=O)N[C@@H](CC(=O)O)C(=O)NCC(=O)N[C@H](CO)C(=O)N[C@@H]([C@@H](C)CC(=O)O)C(=O)N[C@@H](CC(=O)c2ccccc2N)C(=O)O[C@@H]1C
- MIC (Staphylococcus aureus [1]): 16 mg/L (≈ 9.75 µM)
- MIC (Staphylococcus aureus [2]): 16 mg/L
- MIC (Staphylococcus aureus [3]): 16 mg/L
- MIC (Staphylococcus aureus [4]): 32 mg/L

SMILES: CCCCCCCCCC(=O)N[C@@H](Cc1ccsc1)C(=O)N[C@@H](CC(N)=O)C(=O)N[C@@H](CC(=O)O)C(=O)N[C@@H]1C(=O)NCC(=O)N[C@@H](CCCN)C(=O)N[C@@H](CC(=O)O)C(=O)N[C@H](C)C(=O)N[C@@H](CC(=O)O)C(=O)NCC(=O)N[C@H](CO)C(=O)N[C@@H]([C@@H](C)CC(=O)O)C(=O)N[C@@H](CC(=O)c2ccccc2N)C(=O)O[C@@H]1C
- MIC (Staphylococcus aureus [1]): 4 mg/L (≈ 2.52 µM)
- MIC (Staphylococcus aureus [2]): 8 mg/L
- MIC (Staphylococcus aureus [3]): 16 mg/L
- MIC (Staphylococcus aureus [4]): 32 mg/L

SMILES: CCCCCCCCCC(=O)N[C@@H](Cc1ccc(C(F)(F)F)cc1)C(=O)N[C@@H](CC(N)=O)C(=O)N[C@@H](CC(=O)O)C(=O)N[C@@H]1C(=O)NCC(=O)N[C@@H](CCCN)C(=O)N[C@@H](CC(=O)O)C(=O)N[C@H](C)C(=O)N[C@@H](CC(=O)O)C(=O)NCC(=O)N[C@H](CO)C(=O)N[C@@H]([C@@H](C)CC(=O)O)C(=O)N[C@@H](CC(=O)c2ccccc2N)C(=O)O[C@@H]1C
- MIC (Staphylococcus aureus [1]): 2 mg/L (≈ 1.21 µM)
- MIC (Staphylococcus aureus [2]): 32 mg/L
- MIC (Staphylococcus aureus [3]): > 32 mg/L
- MIC (Staphylococcus aureus [4]): 8 mg/L

Now from value to molecule:

- MIC (Staphylococcus aureus [1]): 4 mg/L (≈ 2.46 µM)
- MIC (Staphylococcus aureus [2]): 4 mg/L
- MIC (Staphylococcus aureus [3]): 16 mg/L
- MIC (Staphylococcus aureus [4]): 8 mg/L
SMILES: CCCCCCCCCC(=O)N[C@@H](Cc1ccc(OCC)cc1)C(=O)N[C@@H](CC(N)=O)C(=O)N[C@@H](CC(=O)O)C(=O)N[C@@H]1C(=O)NCC(=O)N[C@@H](CCCN)C(=O)N[C@@H](CC(=O)O)C(=O)N[C@H](C)C(=O)N[C@@H](CC(=O)O)C(=O)NCC(=O)N[C@H](CO)C(=O)N[C@@H]([C@@H](C)CC(=O)O)C(=O)N[C@@H](CC(=O)c2ccccc2N)C(=O)O[C@@H]1C

- MIC (Staphylococcus aureus [1]): 2 mg/L (≈ 1.22 µM)
- MIC (Staphylococcus aureus [2]): 8 mg/L
- MIC (Staphylococcus aureus [3]): 16 mg/L
- MIC (Staphylococcus aureus [4]): 4 mg/L
SMILES: CCCCCCCCCC(=O)N[C@@H](Cc1csc2ccccc12)C(=O)N[C@@H](CC(N)=O)C(=O)N[C@@H](CC(=O)O)C(=O)N[C@@H]1C(=O)NCC(=O)N[C@@H](CCCN)C(=O)N[C@@H](CC(=O)O)C(=O)N[C@H](C)C(=O)N[C@@H](CC(=O)O)C(=O)NCC(=O)N[C@H](CO)C(=O)N[C@@H]([C@@H](C)CC(=O)O)C(=O)N[C@@H](CC(=O)c2ccccc2N)C(=O)O[C@@H]1C

- MIC (Staphylococcus aureus [1]): 0.25 mg/L (≈ 0.153 µM)
- MIC (Staphylococcus aureus [2]): 16 mg/L
- MIC (Staphylococcus aureus [3]): > 32 mg/L
- MIC (Staphylococcus aureus [4]): 1 mg/L
SMILES: CCCCCCCCCC(=O)N[C@@H](Cc1c[nH]c2ccc(F)cc12)C(=O)N[C@@H](CC(N)=O)C(=O)N[C@@H](CC(=O)O)C(=O)N[C@@H]1C(=O)NCC(=O)N[C@@H](CCCN)C(=O)N[C@@H](CC(=O)O)C(=O)N[C@H](C)C(=O)N[C@@H](CC(=O)O)C(=O)NCC(=O)N[C@H](CO)C(=O)N[C@@H]([C@@H](C)CC(=O)O)C(=O)N[C@@H](CC(=O)c2ccccc2N)C(=O)O[C@@H]1C

- MIC (Staphylococcus aureus [1]): > 32 mg/L
- MIC (Staphylococcus aureus [2]): > 32 mg/L
- MIC (Staphylococcus aureus [3]): > 32 mg/L
- MIC (Staphylococcus aureus [4]): > 32 mg/L
SMILES: CCCCCCCCCC(=O)N[C@@H](Cc1ccc(C(=O)O)cc1)C(=O)N[C@@H](CC(N)=O)C(=O)N[C@@H](CC(=O)O)C(=O)N[C@@H]1C(=O)NCC(=O)N[C@@H](CCCN)C(=O)N[C@@H](CC(=O)O)C(=O)N[C@H](C)C(=O)N[C@@H](CC(=O)O)C(=O)NCC(=O)N[C@H](CO)C(=O)N[C@@H]([C@@H](C)CC(=O)O)C(=O)N[C@@H](CC(=O)c2ccccc2N)C(=O)O[C@@H]1C

- MIC (Staphylococcus aureus [1]): 1 mg/L (≈ 0.606 µM)
- MIC (Staphylococcus aureus [2]): 4 mg/L
- MIC (Staphylococcus aureus [3]): 4 mg/L
- MIC (Staphylococcus aureus [4]): 32 mg/L
SMILES: CCCCCCCCCC(=O)N[C@@H](Cc1ccc(N2CCCC2)cc1)C(=O)N[C@@H](CC(N)=O)C(=O)N[C@@H](CC(=O)O)C(=O)N[C@@H]1C(=O)NCC(=O)N[C@@H](CCCN)C(=O)N[C@@H](CC(=O)O)C(=O)N[C@H](C)C(=O)N[C@@H](CC(=O)O)C(=O)NCC(=O)N[C@H](CO)C(=O)N[C@@H]([C@@H](C)CC(=O)O)C(=O)N[C@@H](CC(=O)c2ccccc2N)C(=O)O[C@@H]1C

- MIC (Staphylococcus aureus [1]): 2 mg/L (≈ 1.25 µM)
- MIC (Staphylococcus aureus [2]): 8 mg/L
- MIC (Staphylococcus aureus [3]): 16 mg/L
- MIC (Staphylococcus aureus [4]): 8 mg/L
SMILES: CCCCCCCCCC(=O)N[C@@H](Cc1ccc(F)cc1)C(=O)N[C@@H](CC(N)=O)C(=O)N[C@@H](CC(=O)O)C(=O)N[C@@H]1C(=O)NCC(=O)N[C@@H](CCCN)C(=O)N[C@@H](CC(=O)O)C(=O)N[C@H](C)C(=O)N[C@@H](CC(=O)O)C(=O)NCC(=O)N[C@H](CO)C(=O)N[C@@H]([C@@H](C)CC(=O)O)C(=O)N[C@@H](CC(=O)c2ccccc2N)C(=O)O[C@@H]1C

- MIC (Staphylococcus aureus [1]): 16 mg/L (≈ 10 µM)
- MIC (Staphylococcus aureus [2]): 16 mg/L
- MIC (Staphylococcus aureus [3]): 32 mg/L
- MIC (Staphylococcus aureus [4]): 32 mg/L
SMILES: CCCCCCCCCC(=O)N[C@@H](Cc1ccc(N)cc1)C(=O)N[C@@H](CC(N)=O)C(=O)N[C@@H](CC(=O)O)C(=O)N[C@@H]1C(=O)NCC(=O)N[C@@H](CCCN)C(=O)N[C@@H](CC(=O)O)C(=O)N[C@H](C)C(=O)N[C@@H](CC(=O)O)C(=O)NCC(=O)N[C@H](CO)C(=O)N[C@@H]([C@@H](C)CC(=O)O)C(=O)N[C@@H](CC(=O)c2ccccc2N)C(=O)O[C@@H]1C

- MIC (Staphylococcus aureus [1]): 2 mg/L (≈ 1.24 µM)
- MIC (Staphylococcus aureus [2]): 2 mg/L
- MIC (Staphylococcus aureus [3]): 4 mg/L
- MIC (Staphylococcus aureus [4]): 4 mg/L
SMILES: CCCCCCCCCC(=O)N[C@@H](Cc1cccc(OC)c1)C(=O)N[C@@H](CC(N)=O)C(=O)N[C@@H](CC(=O)O)C(=O)N[C@@H]1C(=O)NCC(=O)N[C@@H](CCCN)C(=O)N[C@@H](CC(=O)O)C(=O)N[C@H](C)C(=O)N[C@@H](CC(=O)O)C(=O)NCC(=O)N[C@H](CO)C(=O)N[C@@H]([C@@H](C)CC(=O)O)C(=O)N[C@@H](CC(=O)c2ccccc2N)C(=O)O[C@@H]1C

- MIC (Staphylococcus aureus [1]): 8 mg/L (≈ 4.87 µM)
- MIC (Staphylococcus aureus [2]): 8 mg/L
- MIC (Staphylococcus aureus [3]): 8 mg/L
- MIC (Staphylococcus aureus [4]): 16 mg/L
SMILES: CCCCCCCCCC(=O)N[C@@H](Cc1ccc(OC)cc1OC)C(=O)N[C@@H](CC(N)=O)C(=O)N[C@@H](CC(=O)O)C(=O)N[C@@H]1C(=O)NCC(=O)N[C@@H](CCCN)C(=O)N[C@@H](CC(=O)O)C(=O)N[C@H](C)C(=O)N[C@@H](CC(=O)O)C(=O)NCC(=O)N[C@H](CO)C(=O)N[C@@H]([C@@H](C)CC(=O)O)C(=O)N[C@@H](CC(=O)c2ccccc2N)C(=O)O[C@@H]1C

- MIC (Staphylococcus aureus [1]): 1 mg/L (≈ 0.627 µM)
- MIC (Staphylococcus aureus [2]): 2 mg/L
- MIC (Staphylococcus aureus [3]): 8 mg/L
- MIC (Staphylococcus aureus [4]): 8 mg/L
SMILES: CCCCCCCCCC(=O)N[C@@H](Cc1ccc(C)cc1)C(=O)N[C@@H](CC(N)=O)C(=O)N[C@@H](CC(=O)O)C(=O)N[C@@H]1C(=O)NCC(=O)N[C@@H](CCCN)C(=O)N[C@@H](CC(=O)O)C(=O)N[C@H](C)C(=O)N[C@@H](CC(=O)O)C(=O)NCC(=O)N[C@H](CO)C(=O)N[C@@H]([C@@H](C)CC(=O)O)C(=O)N[C@@H](CC(=O)c2ccccc2N)C(=O)O[C@@H]1C

- MIC (Staphylococcus aureus [1]): 2 mg/L (≈ 1.26 µM)
- MIC (Staphylococcus aureus [2]): 4 mg/L
- MIC (Staphylococcus aureus [3]): 8 mg/L
- MIC (Staphylococcus aureus [4]): 4 mg/L
SMILES: CCCCCCCCCC(=O)N[C@@H](Cc1ccccc1)C(=O)N[C@@H](CC(N)=O)C(=O)N[C@@H](CC(=O)O)C(=O)N[C@@H]1C(=O)NCC(=O)N[C@@H](CCCN)C(=O)N[C@@H](CC(=O)O)C(=O)N[C@H](C)C(=O)N[C@@H](CC(=O)O)C(=O)NCC(=O)N[C@H](CO)C(=O)N[C@@H]([C@@H](C)CC(=O)O)C(=O)N[C@@H](CC(=O)c2ccccc2N)C(=O)O[C@@H]1C
